Source: US20240228647A1, “OFATUMUMAB FOR TREATING MULTIPLE SCLEROSIS IN ASIAN PATIENTS” (Novartis AG, priority 2021, published 2024)

Columns and labels:
serum IgG and IgM levels = conditions: cited from earlier work
patients with RMS = format: in vivo, human; conditions: human, in vivo
Description: Ofatumumab was investigated in 1882 patients with RMS from two identical Phase III randomized, double-blind, double-dummy, active-comparator controlled, parallel-group, multicenter studies of identical design (Study I and Study II). Patients were randomized to receive either ofatumumab, OMB (20 mg s.c injections every 4 weeks, after an initial loading regimen of 3 injections on Day 1, 7, and 14), or teriflunomide, TER (14 mg p.o. once a day) as active comparator. For brevity, the teriflunomide data are not shown hereinafter.
The maximum treatment duration for an individual patient was 30 study months (approximately 2.5 years). The two studies included a total of 71 patients of Asian race (36 patients in ofatumumab and 35 patients in teriflunomide treatment groups). This Example also includes the Asian patients data from oncology studies (Study A and Study B), as supportive data, where required.
For the safety analyses of this report, non-serious treatment emergent adverse events (TEAEs) up to and including safety cut-off (i.e. 100 days after last study drug administration) and serious TEAEs regardless of the safety cutoff were considered (if reported prior to the data cut-off of Studies I and II). Common terminology criteria for adverse events (CTCAE) grading was used to record the severity of each AE. The latest version of CTCAE available at the time of TEAE reporting was used. […] The three most frequently reported AEs by SOC were ‘General disorders and administration site conditions’ ‘Infections and infestations’ and ‘Injury, poisoning and procedural complications’ in the Asian and ROW subgroups by race (Table 7). […] In the Asian subgroup, 1 patient experienced SAEs of urinary tract infections, urosepsis and testicular infarction in the ofatumumab group and 1 patient reported an SAE of nephrolithiasis in the teriflunomide group (Table 8). Due to the small number of Asian patients by race and region, results should be interpreted with caution.
AEs of special interest were summarized by risk name, PT and treatment. Furthermore, the incidence of any AE that fulfilled the search terms as defined in eCRS were summarized by risk name, level, and maximum CTCAE grade. In this section, AESIs are first described for subgroups by race and then by region. […] The definitions of AEs of special interest correspond to the identified or potential risks for ofatumumab and its class of drug as well as those for the comparator (teriflunomide). AESIs, based on the safety profiles of ofatumumab, comparator, and other anti-CD20 mABs are: • Injection-related reactions including injection-systemic reaction and injection-site • reactions • Infections, including opportunistic infections, HBV infection reactivation and PML • Malignant and premalignant disorders • Hepatic Safety • Neutropenia

serum Ig levels = conditions: cited from earlier work

Compound: rituximab [RTX]
- Decrease of IgM levels in serum per year (serum IgG and IgM levels): 5.0%

Compound: C/C(O)=C(\C#N)C(=O)Nc1ccc(C(F)(F)F)cc1 [teriflunomide]
- AE by PT: alopecia, % (patients with RMS): 15.3%
- AE by PT: alopecia, patients (patients with RMS): 138
- AE by PT: nasopharyngitis, % (patients with RMS): 17.2%
- AE by PT: nasopharyngitis, patients (patients with RMS): 155
- AE by PT: pyrexia, % (patients with RMS): 14.3%
- AE by PT: pyrexia, patients (patients with RMS): 5
- AE by PT: upper respiratory tract infection, % (patients with RMS): 5.7%
- AE by PT: upper respiratory tract infection, patients (patients with RMS): 2
- Patients who experienced at least 1 AE, % (patients with RMS): 84.2%
- SAE by PT: Appendicitis, % (patients with RMS): 0.2%
- SAE by PT: Appendicitis, patients (patients with RMS): 2
- Serious TEAE: Infections and infestations, % (patients with RMS): 1.9%

Compound: ocrelizumab
- Reduction of IgG levels (serum Ig levels; after two years (96 weeks), FIG. 6): approx. 5%
- Reduction in serum Ig levels, approximate mean rate per year (serum Ig levels; per year, over 5.5 years): 3-4%
